Source: patent publication US20080139536A1, “Benzodiazepines for Treating or Preventing Rsv Infection” (Novartis Pharmaceuticals Corporation, priority 2004, published 2008)

How the values were obtained:
Hep-2 cells = assay: Cell toxicity: crystal violet staining and microscopic examination of monolayers; type: cell-based; conditions: Hep-2 monolayers of the assay plates, crystal violet stain, indications of cell toxicity; compounds tested 50 μM-0.78 μM
Protocol: (§1) All 96 wells of a microtitre plate were seeded at a density of 4×10^3 Hep-2 cells/well in 100 μl/well of Growth Medium (GM) consisting of Dulbecco's MEM (DMEM) with Glutamax-1, Sodium Pyruvate, 1000 mg/l glucose and pyridoxine (Invitrogen, catalogue number 21885-025) and supplemented with 10% FBS. (See Plate 1).
(§2) Six compounds were tested on each assay plate as illustrated below. (See Plate 3). Compounds were tested in duplicate wells across a 7-point dilution series (from 50 μM-0.78 μM): in the presence of virus.
The wells were emptied, washed in tap water and the monolayers stained with 50 μl/well of 2% crystal violet in 20% methanol/water for at least 1 hour. The wells were then washed and air-dried and the monolayers examined under the microscope for indications of cell toxicity.

RSV (RSS strain) = assay: RSV ELISA antigen reduction assay in Hep-2 cells; type: cell-based, Respiratory Syncytial Virus; conditions: RSV-infected Hep-2 cells, 3 day assay, ELISA OD 490 nm, 7-point dilution 50 μM-0.78 μM
Protocol: This was quantified by optical density (OD) measurement.
This assay was set up using all 96 wells of flat-bottomed 96-well plates. The outer wells were not subjected to any greater amount of evaporation than the inner wells during the 3 day assay period. (i.e. No “edge effect” seen).
Plates were set up one day before addition of virus and compounds. The assay then ran for 3 days with ELISA development taking place on the 4th day.
as §1
A frozen vial of RSV (RSS strain provided by Virogen Ltd) stock solution was removed from the −80 freezer or liquid nitrogen store and diluted to a known Multiplicity of Infection (m.o.i) in Growth Medium.
The m.o.i. was calculated by prior titration of the virus stock (by the ELISA assay method) as the virus input required to achieve a window of at least 0.8 OD units between infected and uninfected control wells.
50 μl of diluted virus was added to infected, “virus+”, wells by multichannel pipette; 50 μl of Growth Medium was added to uninfected, cell control wells (CC) by multichannel pipette. (See Plate 2)
Plates were incubated at 37° C. for 1 hr to allow virus adsorption.
Compounds were made up at 4× strength in GM containing 2% DMSO (a final DMSO concentration in the assay of 0.5%).
as §2
Virus infected, untreated wells served as the virus control (VC); Uninfected, untreated wells serve as the cell control (CC). The difference in absorbance between CC and VC wells constitutes the assay window.
200 μl of GM containing 2% DMSO was added to all wells except the ‘50 μM’ or first column, to which 392 μl of GM was added. 8 μl of each test compound was cherry-picked from a thawed Arrow screening plate and transferred to the appropriate well in the ‘50 μM’ column. Since the compound stock was at 10 mM in 100% DMSO, this will maintain the DMSO level at 2% at the top compound concentration.
Using a multichannel pipette, 200 μl was transferred from the 50 μM column to the 25 μM column, then to the 12.5 μM column and so on across the dilution plate creating a serial doubling dilution. Compounds were mixed upon transfer and tips changed between transfers, ensuring also that no compound was transferred to the last column of compound-free wells (0 μM).
The dilution plate was turned lengthways and 50 μl of compound easily transferred by multichannel pipette from the dilution plate to the assay plate, column by column. There was therefore an excess of 100 μl remaining in the dilution plate.
Plates were incubated at 37° C., 5% CO2 for 3 days.
Media was tapped out from wells directly into Virkon (1% solution in water) and plates were washed by immersing in a plastic box containing PBS. 50 μl/well of 75%/25% vol/vol acetone/methanol fixative was added by multichannel pipette and left for 3 mins.
Some 200 μl of blocking solution (2% Marvel in PBS containing 0.05% Tween) was added per well by multichannel pipette. Plates were incubated at 37° C. in a shaking incubator for 60 mins.
RSV mouse monoclonal antibody NCL-RSV3 (Novocastra) was diluted 1/400 in PBS/2% Marvel/0.05% Tween and 50 μl was added per well. Plates were incubated at 37° C. in a shaking incubator for 90 mins.
DAKo rabbit anti-mouse HRP conjugate (DAKO catalogue number P0260) was diluted 1/1000 in PBS/2% Marvel/0.05% Tween and 50 μl was added per well. Plates were incubated at 37° C. in a shaking incubator for 60 mins.
Substrate (SigmaFast OPD) was prepared in advance by dissolving 1 urea tablet in 20 mL water. […]

[1] = human respiratory syncytial virus, 72 h

Molecule	IC50 (RSV (RSS strain); [1]) [µM]	also measured
O=C(N[C@H]1N=C(c2ccccc2)c2ccccc2NC1=O)c1cccnc1N1CCOCC1 [Example 21, (S)-2-Morpholin-4-yl-N-(2-oxo-5-phenyl-2,3-dihydro-1H-benzo[e][1,4]diazepin-3-yl)-nicotinamide]	5 to 10	TD50 (Hep-2 cells): Tr25
O=C(N[C@H]1N=C(c2ccccc2)c2ccccc2NC1=O)c1ccc(CN2CCS(=O)(=O)CC2)o1 [Example 34, (S)-5-(1,1-Dioxo-1λ6-thiomorpholin-4-ylmethyl)-furan-2-carboxylic acid (2-oxo-5-phenyl-2,3-dihydro-1H-benzo[e][1,4]diazepin-3-yl)-amide]	< 5	
CN1CCN(S(=O)(=O)c2cccc(C(=O)N[C@H]3N=C(c4ccccc4)c4ccccc4NC3=O)c2)CC1 [Example 28, (S)-3-(4-Methyl-piperazine-1-sulfonyl)-N-(2-oxo-5-phenyl-2,3-dihydro-1H-benzo[e][1,4]diazepin-3-yl)-benzamide]	> 10	
O=C(N[C@H]1N=C(c2ccccc2)c2ccccc2NC1=O)c1cccc(S(=O)(=O)N2CCCCC2)c1 [Example 30, (S)—N-(2-Oxo-5-phenyl-2,3-dihydro-1H-benzo[e][1,4]diazepin-3-yl)-3-(piperidine-1-sulfonyl)-benzamide]	5 to 10	
O=C(N[C@H]1N=C(c2ccccc2)c2ccccc2NC1=O)c1cc(Cl)ccc1N1CCS(=O)(=O)CC1 [Example 6, (S)-5-Chloro-2-(1,1-dioxo-1λ6-thiomorpholin-4-yl)-N-(2-oxo-5-phenyl-2,3-dihydro-1H-benzo[e][1,4]diazepin-3-yl)-benzamide]	5 to 10	
Cc1nc(-c2cnccn2)sc1C(=O)N[C@H]1N=C(c2ccccc2)c2ccccc2NC1=O [Example 40, (S)-4-Methyl-2-pyrazin-2-yl-thiazole-5-carboxylic acid (2-oxo-5-phenyl-2,3-dihydro-1H-benzo[e][1,4]diazepin-3-yl)-amide]	5 to 10	
O=C(N[C@H]1N=C(c2ccccc2)c2ccccc2NC1=O)c1ccc(C(F)(F)F)cc1N1CCCCC1 [Example 17, (S)—N-(2-Oxo-5-phenyl-2,3-dihydro-1H-benzo[e][1,4]diazepin-3-yl)-2-piperidin-1-yl-4-trifluoromethyl-benzamide]	5 to 10	
O=C1Nc2ccccc2C(c2ccccc2)=N[C@@H]1NC(=O)n1c(=O)n(C2CC2)c2ncccc21 [Example 27, (S)-3-Cyclopropyl-2-oxo-2,3-dihydro-imidazo[4,5-b]pyridine-1-carboxylic acid (2-oxo-5-phenyl-2,3-dihydro-1H-benzo[e][1,4]diazepin-3-yl)-amide]	> 10	
O=C(Nc1ccc(Oc2ccccc2)cc1)NC1N=C(c2ccccc2)c2ccccc2NC1=O (racemic) [Example 52, 1-(2-Oxo-5-phenyl-2,3-dihydro-1H-benzo[e][1,4]diazepin-3-yl)-3-(4-phenoxy-phenyl)-urea]	5 to 10	
(S)-5-Pyrrolidin-1-ylmethyl-furan-2-carboxylic acid (2-oxo-5-phenyl-2,3-dihydro-1H-benzo[e][1,4]diazepin-3-yl)-amide [Example 9]		IC50 (RSV (RSS strain)): 5 to 10 µM
O=C(N[C@H]1N=C(c2ccccc2)c2ccccc2NC1=O)c1ccc(N2CCOCC2)cc1Cl [Example 4, (S)-2-Chloro-4-morpholin-4-yl-N-(2-oxo-5-phenyl-2,3-dihydro-1H-benzo[e][1,4]diazepin-3-yl)-benzamide]	< 5	
O=C(N[C@H]1N=C(c2ccccc2)c2ccccc2NC1=O)c1cccc(CN2CCOCC2)c1 [Example 42, (S)-3-Morpholin-4-ylmethyl-N-(2-oxo-5-phenyl-2,3-dihydro-1H-benzo[e][1,4]diazepin-3-yl)-benzamide]	< 5	
O=C(N[C@H]1N=C(c2ccccc2)c2ccccc2NC1=O)c1csc(-c2cccnc2)n1 [Example 38, (S)-2-Pyridin-3-yl-thiazole-4-carboxylic acid (2-oxo-5-phenyl-2,3-dihydro-1H-benzo[e][1,4]diazepin-3-yl)-amide]	< 5	
O=C(N[C@H]1N=C(c2ccccc2)c2ccccc2NC1=O)c1ccc(F)cc1N1CCCCC1 [Example 12, (S)-4-Fluoro-N-(2-oxo-5-phenyl-2,3-dihydro-1H-benzo[e][1,4]diazepin-3-yl)-2-piperidin-1-yl-benzamide]	5 to 10	
O=C(N[C@H]1N=C(c2ccccc2)c2ccccc2NC1=O)c1ncoc1-c1ccccc1 [Example 51, (S)-5-Phenyl-oxazole-4-carboxylic acid (2-oxo-5-phenyl-2,3-dihydro-1H-benzo[e][1,4]diazepin-3-yl)-amide]	< 5	
O=C(N[C@H]1N=C(c2ccccc2)c2ccccc2NC1=O)c1occc1CN1CCOCC1 [Example 44, (S)-3-Morpholin-4-ylmethyl-furan-2-carboxylic acid (2-oxo-5-phenyl-2,3-dihydro-1H-benzo[e][1,4]diazepin-3-yl)-amide]	5 to 10	
O=C(N[C@H]1N=C(c2ccccc2)c2ccccc2NC1=O)c1c(Cl)cccc1N1CCS(=O)(=O)CC1 [Example 26, (S)-2-Chloro-6-(1,1-dioxo-1,6-thiomorpholin-4-yl)-N-(2-oxo-5-phenyl-2,3-dihydro-1H-benzo[e][1,4]diazepin-3-yl)-benzamide]		IC50 (RSV (RSS strain)): < 5 µM
Cc1occ(S(=O)(=O)N2CCOCC2)c1C(=O)N[C@H]1N=C(c2ccccc2)c2ccccc2NC1=O [Example 46, (S)-2-Methyl-4-(morpholin-4-sulfonyl)-furan-3-carboxylic acid (2-oxo-5-phenyl-2,3-dihydro-1H-benzo[e][1,4]diazepin-3-yl)-amide]	5 to 10	
O=C(N[C@H]1N=C(c2ccccc2)c2ccccc2NC1=O)c1ccccc1N1CCS(=O)(=O)CC1 [Example 3]		IC50 (RSV (RSS strain)): 5 to 10 µM
O=C(N[C@H]1N=C(c2ccccc2)c2ccccc2NC1=O)c1ccc(CO)o1 [Example 33, (S)-5-Hydroxymethyl-furan-2-carboxylic acid (2-oxo-5-phenyl-2,3-dihydro-1H-benzo[e][1,4]diazepin-3-yl)-amide]	5 to 10	
CN(C)Cc1ccc(C(=O)N[C@H]2N=C(c3ccccc3)c3ccccc3NC2=O)o1 [Example 11, (S)-5-Dimethylaminomethyl-furan-2-carboxylic acid (2-oxo-5-phenyl-2,3-dihydro-1H-benzo[e][1,4]diazepin-3-yl)-amide]	< 5	
CN1CCN(Cc2ccc(C(=O)N[C@H]3N=C(c4ccccc4)c4ccccc4NC3=O)o2)CC1 [Example 8, (S)-5-(4-Methyl-piperazin-1-ylmethyl)-furan-2-carboxylic acid (2-oxo-5-phenyl-2,3-dihydro-1H-benzo[e][1,4]diazepin-3-yl)-amide]	< 5	
O=C(N[C@H]1N=C(c2ccccc2)c2ccccc2NC1=O)c1ccc(CN2CCOCC2)s1 [Example 49, (S)-5-Morpholin-4-ylmethyl-thiophene-2-carboxylic acid (2-oxo-5-phenyl-2,3-dihydro-1H-benzo[e][1,4]diazepin-3-yl)-amide]	< 5	
CN(CCS(C)(=O)=O)Cc1ccc(C(=O)N[C@H]2N=C(c3ccccc3)c3ccccc3NC2=O)o1 [Example 37]		IC50 (RSV (RSS strain)): < 5 µM
